From patent US4406908A, “Tetrazolylcoumarin derivatives and antiallergic compositions containing the same” (Kakenyaku Kako Co., Ltd., priority 1980, dated 1983)

Key:
acute toxicity in mice = conditions: mouse, in vivo, po, orally, suspended in 10% gum arabic solution, 6 days observation, method of Litchfield-Wilcoxon
Protocol: With respect to the 3-(1H-tetrazol-5-yl)-coumarin derivatives obtained in Examples 1 to 12, there was tested acute toxicity in mice.
After normal female Slc: ddy mice 4 weeks old were purchased and fed preliminarily in this lavoratory for a week, these mice weighing 25-27 g. were used in the test. The present compounds to be tested, were suspended in a 10% gum arabic solution and administered orally […]. body weight to mice. Each dose level was given to a group of ten animals and the survivors were kept under observation for 6 days. The numbers of dead animals were counted and the LD50 values in mg./kg. body weight were calculated by the method of Litchfield-Wilcoxon.

[1] = test system: passive cutaneous anaphylaxis (PCA) mediated by homocytotropic antibodies (HTA); experiment: antiallergic activity: passive cutaneous anaphylaxis (PCA) mediated by homocytotropic antibodies (HTA) in rats; type: in vivo, rat (Wister); conditions: Rattus norvegicus, given orally 30 minutes before antigen challenge, minimum dose that decreased statistically significantly the amount of leaked dye comparing with control, 72 hr. PCA, read-out: MED
Protocol: With respect to the 3-(1H-tetrazol-5-yl)-coumarin derivatives obtained in Examples 1 to 12, there was tested antiallergic activity concerning passive cutaneous anaphylaxis (PCA) mediated by homocytotropic antibodies (HTA) in rats.
2,4-Dinitrophenyl-coupled ascaris extract (DNP-As) used as antigen, was prepared according to the methods of Strejan et al [cf. J. Immunol., Vol. 98, 893(1967)] and Eisen [cf. J. Amer. Chem. Soc., Vol. 75, 4593(1953)]. Antisera containing HTA were prepared in rats according to the method of Tada and Okumura [cf, J. Immunol., Vol. 106, 1002(1971)] as follows:
Wister rats weighing 180 to 200 g. were splenectomized and several days later immunized by injecting into all four footpads a total of 1 mg. of DNP-As mixed with 10^10 Bordetella pertussis. After 5 days, 0.5 mg. of DNP-As alone was injected subcutaneously into the back of rats. Eight days after the first immunization, blood was collected by aortic puncture under ether anaesthesea and antisera obtained by these procedures were pooled and stored at -80° C.
The titer of the pooled autiserum was determined in rats by the 72 hr. PCA which method was described in the following item (ii), i.e. the highest dilution of antiserum producing a diameter of approximately 5 mm. was usually 1:500.
Normal wister rats weighing 140 to 160 g. were sensitized passively by injection intradermal on the shaved back skin 0.05 ml. of the diluted antisera (1:30). After 72 hours, the animals were injected intravenously 1 ml. of physiological salt solution containing 2 mg. DNP-As and 2.5 mg. Evans' blue.
The present compounds to be tested were given orally 30 minutes before antigen challenge. The animals were exsanguinated 30 minutes after challenge with the antigens and the skins were exfoliated. The intensities of PCA were evaluated by measuring the amount of leaked dye. The amount of dye leaked as a result of PCA was extracted according to the method of Harada et al [cf. Jpn.

## O=c1oc2c(OCCOc3ccccc3)cccc2cc1-c1nnn[nH]1 [Ex. 12, 8-(2-Phenoxyethyloxy)-3-(1H-tetrazol-5-yl)-coumarin]
Acute toxicity in mice
  LD50 at 144 h: > 2000 mg/kg
[1]
  minimal effective dose: 1.56 mg/kg

## CC(C)OCCOc1cccc2cc(-c3nn[nH]n3)c(=O)oc12 [Ex. 5]
Acute toxicity in mice
  LD50 at 144 h: 1500 mg/kg
[1]
  minimal effective dose: 6.25 mg/kg

## CC(C)COCCOc1cccc2cc(-c3nnn[nH]3)c(=O)oc12 [Ex. 7, 8-(5-Methyl-3-oxahexyloxy)-3-(1H-tetrazol-5-yl)coumarin]
Acute toxicity in mice
  LD50 at 144 h: > 2000 mg/kg
[1]
  minimal effective dose: 6.25 mg/kg

## CCOCCCCOc1cccc2cc(-c3nnn[nH]3)c(=O)oc12 [Ex. 9, 8-(5-Oxaheptyloxy)-3-(1H-tetrazol-5-yl)coumarin]
Acute toxicity in mice
  LD50 at 144 h: > 2000 mg/kg
[1]
  minimal effective dose: 0.39 mg/kg

## C=CCOCCOc1cccc2cc(-c3nnn[nH]3)c(=O)oc12 [Ex. 10, 8-(3-Oxa-5-hexenyloxy)-3-(1H-tetrazol-5-yl)-coumarin]
Acute toxicity in mice
  LD50 at 144 h: 1500 to 2000 mg/kg
[1]
  minimal effective dose: 6.25 mg/kg

## O=c1oc2c(OCCCO)cccc2cc1-c1nnn[nH]1 [Ex. 1, 8-(3-Hydroxypropoxy)-3-(1H-tetrazol-5-yl)coumarin]
Acute toxicity in mice
  LD50 at 144 h: > 2000 mg/kg

## CCOCCOCCOc1cccc2cc(-c3nn[nH]n3)c(=O)oc12 [Ex. 11, 8-(3,6-Dioxaoctyloxy)-3-(1-H-tetrazol-5-yl)-coumarin]
Acute toxicity in mice
  LD50 at 144 h: > 2000 mg/kg
[1]
  minimal effective dose: 1.56 mg/kg

## CCOCCCOc1cccc2cc(-c3nnn[nH]3)c(=O)oc12 [Ex. 8, 8-(4-Oxahexyloxy)-3-(1H-tetrazol-5-yl)coumarin]
Acute toxicity in mice
  LD50 at 144 h: > 2000 mg/kg
[1]
  minimal effective dose: 6.25 mg/kg

## COCCOc1cccc2cc(-c3nnn[nH]3)c(=O)oc12 [Ex. 2, 8-(3-Oxabutoxy)-3-(1H-tetrazol-5-yl)coumarin]
Acute toxicity in mice
  LD50 at 144 h: 1500 to 2000 mg/kg
[1]
  minimal effective dose: 1.56 mg/kg

## CCOCCOc1cccc2cc(-c3nnn[nH]3)c(=O)oc12 [Ex. 3, 8-(3-Oxapentyloxy)-3-(1H-tetrazol-5-yl)coumarin]
Acute toxicity in mice
  LD50 at 144 h: 1500 mg/kg
[1]
  minimal effective dose: 0.39 mg/kg

## CCCOCCOc1cccc2cc(-c3nnn[nH]3)c(=O)oc12 [Ex. 4, 8-(3-Oxahexyloxy)-3-(1H-tetrazol-5-yl)coumarin]
Acute toxicity in mice
  LD50 at 144 h: 1500 to 2000 mg/kg
[1]
  minimal effective dose: 1.56 mg/kg

## CCCCOCCOc1cccc2cc(-c3nnn[nH]3)c(=O)oc12 [Ex. 6, 8-(3-Oxaheptyloxy)-3(1H-tetrazol-5-yl)coumarin]
Acute toxicity in mice
  LD50 at 144 h: > 2000 mg/kg
[1]
  minimal effective dose: 6.25 mg/kg
